Measurements reported in paper PMC4765732 (Journal of medicinal chemistry, 2015).

How the values were obtained:
HIV-1LAI = experiment: Antiviral assay in MT-2 human T-lymphocytes exposed to HIV-1LAI; assay type: cell-based
HIV-1DRV^RP51 = assay type: cell-based; details: against HIV-1DRV^RP51

COc1ccc(S(=O)(=O)N(CC(C)C)C[C@@H](O)[C@H](Cc2ccccc2)NC(=O)O[C@H]2CO[C@H]3OC[C@H](N(C)C(=O)OC(C)(C)C)[C@H]32)cc1 [Inhibitor 25e, (3R,3aS,4R,6aR)-4-((2S,3R)-3-Hydroxy-4-(N-isobutyl-4-methoxyphenylsulfonamido)-1-phenylbutan-2-ylcarbamoyloxy)hexahydrofuro[2,3-b]furan-3-yl methyl t-butyl carbamate]
loss in antiviral activity (HIV-1LAI; versus Boc-derivative 25c): ~10 fold

CCN[C@H]1CO[C@@H]2OC[C@H](OC(=O)N[C@@H](Cc3ccccc3)[C@H](O)CN(CC(C)C)S(=O)(=O)c3ccc(OC)cc3)[C@@H]21 [Inhibitor 25i]
improvement in EC50 values over darunavir (HIV-1DRV^RP51): 10 fold

COc1ccc(S(=O)(=O)N(CC(C)C)C[C@@H](O)[C@H](Cc2ccccc2)NC(=O)O[C@H]2CO[C@H]3OC[C@H](NC(C)C)[C@H]32)cc1 [Inhibitor 25j, (3R,3aS,4R,6aR)-4-(Isopropylamino)hexahydrofuro[2,3-b]furan-3-yl ((2S,3R)-3-hydroxy-4-((N-isobutyl-4-methoxyphenyl)sulfonamido)-1-phenylbutan-2-yl)carbamate]
improvement in antiviral activity over the methyl and ethyl derivatives (HIV-1LAI; antiviral IC50 versus 25f and 25i): over 60 fold | improvement in EC50 values over darunavir (HIV-1DRV^RP51): 10 fold
